Data set [1] deals with L540cy xenograft. Briefly: L540cy Hodgkin's lymphoma xenograft model. The class given is in vivo, SCID mice. Particulars: cAC10 ADC (8 drugs per antibody) from the named Drug Linker compound; for tumor growth delay: single 1 mg/kg dose ip on day 8, tumors ~100 mm^3; for tolerability (weight loss, outward signs of toxicity): single 1 mg/kg dose ip, SCID mice. The procedure:
In vivo xenograft models. All experiments were conducted in concordance with the Animal Care and Use Committee in a facility fully accredited by the Association for Assessment and Accreditation of Laboratory Animal Care. Efficacy experiments were conducted in the L540cy Hodgkin's lymphoma model. Tumor cells, as a cell suspension, were implanted sub-cutaneous in immune-compromised SCID mice. Upon tumor engraftment, mice were randomized to study groups (5 mice per group) when the average tumor volume reached about 100 mm^3. The ADC or controls were dosed once via intraperitoneal injection. Tumor volume as a function of time was determined using the formula (L×W^2)/2. Animals were euthanized when tumor volumes reached 750 mm^3. Mice showing durable regressions were terminated after 10-12 weeks post implant.
[…] chimeric antibody cAC10 were prepared from Drug Linker compounds 5 (MDPr-GlucQ-FK866), 12 (MDPr-GlucQ-6050) and 26 (MDPr-GlucQ-6553) to provide ADCs carrying 8 drugs per antibody. Animals were implanted with tumor cells on day 0. Tumors reached ˜100 mm^3 on day 8, and were then treated with a single 1 mg/kg dose (ip) of ADCs.

Data set [2] has as its system Ramos. The experiment in a line: CellTiter-Glo cytotoxicity assay, Ramos. The data set is classed as cell-based. The settings on record: Ramos (Burkitt's lymphoma), 96 h. How it is done: (§1) In vitro cytotoxicity assays: Cells cultured in log-phase growth were seeded for 24 h in 96-well plates containing 150 μL RPMI 1640 supplemented with 20% FBS. Serial dilutions of free drugs or antibody-drug conjugates in cell culture media were prepared at 4× working concentrations; 50 μL of each dilution was added to the 96-well plates. Following addition of ADC, cells were incubated with test articles for 4 d at 37° C. After 96 h, growth inhibition was assessed by CellTiter-Glo™ (Promega, Madison, WI) and luminescence was measured on a plate reader. The IC50 value is defined here as the concentration that results in a 50% reduction in cell growth relative to untreated controls.
(§2) Example 89. Binding and cytoxicity of NAMPTi compounds.
(§3) Karpas 299 (non-Hodgkin's lymphoma), L540cy (Hodgkin's lymphoma), Ramos (Burkitt's lymphoma), HepG2 (hepatocellular carcinoma), Hep3B (hepatocellular carcinoma). NAMPTi compounds of Table 1 have the following structures: […]
(In general: Cellular ATP, detected with luciferase, serves as a proxy for viable cell number.)

Data set [3] relates to L540cy. The experiment in a line: CellTiter-Glo cytotoxicity assay, L540cy. The data set is classed as cell-based. The settings on record: L540cy (Hodgkin's lymphoma), 96 h. The procedure: as §1, §2, §3
In data set [4] the target is purified NAMPT (Homo sapiens, UniProt P43490). The settings on record: read-out: FP assay (IC50); NAMPT 120 nM, fluorescent probe 30 nM, 4 hours room temp.
For data set [5], the system named is HepG2. The experiment in a line: CellTiter-Glo cytotoxicity assay, HepG2. The data set is classed as cell-based. Particulars: HepG2 (hepatocellular carcinoma), 96 h. The procedure:
as §1, §2, §3

The record followed here is patent US20240293554A1, “QUATERNIZED NICOTINAMIDE ADENINE DINUCLEOTIDE SALVAGE PATHWAY INHIBITOR CONJUGATES” (priority 2017, published 2024).

Sequence of purified NAMPT (P43490 whole entry): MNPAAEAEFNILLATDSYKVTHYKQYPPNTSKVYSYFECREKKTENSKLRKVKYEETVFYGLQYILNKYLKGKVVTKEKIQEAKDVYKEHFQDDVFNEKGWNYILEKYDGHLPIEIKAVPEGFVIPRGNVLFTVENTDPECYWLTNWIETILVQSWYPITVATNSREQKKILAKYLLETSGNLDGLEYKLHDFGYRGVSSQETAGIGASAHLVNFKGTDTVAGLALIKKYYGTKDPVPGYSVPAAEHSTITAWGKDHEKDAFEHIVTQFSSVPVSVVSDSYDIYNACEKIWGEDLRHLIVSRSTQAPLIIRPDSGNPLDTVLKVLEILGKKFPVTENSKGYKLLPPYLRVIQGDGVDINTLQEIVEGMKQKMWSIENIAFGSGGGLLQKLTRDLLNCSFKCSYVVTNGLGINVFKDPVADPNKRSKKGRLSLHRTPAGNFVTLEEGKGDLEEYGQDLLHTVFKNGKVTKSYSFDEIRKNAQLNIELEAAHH

On to `NC[C@@H](C(=O)NCCC(=O)Nc1cc(C[n+]2cccc(/C=C/C(=O)NCCCCC3CCN(C(=O)c4cccc(N)c4)CC3)c2)ccc1O[C@@H]1O[C@H](C(=O)O)[C@@H](O)[C@H](O)[C@H]1O)N1C(=O)C=CC1=O` [Compound 12, 1-(3-(3-((S)-3-ammonio-2-(2,5-dioxo-2,5-dihydro-1H-pyrrol-1-yl)propanamido)propanamido)-4-(((2S,3R,4S,5S,6S)-6-carboxy-3,4,5-trihydroxytetrahydro-2H-pyran-2-yl)oxy)benzyl)-3-((E)-3-((4-(1-(3-ammoniobenzoyl)piperidin-4-yl)butyl)amino)-3-oxoprop-1-en-1-yl)pyridin-1-ium 2,2,2-trifluoroacetate], for which, in data set [1], the tumor growth delay entry is “varying levels of tumor growth delay” and the “tolerability (weight loss, outward signs of toxicity)” value is “well-tolerated, with no weight loss or outward signs of toxicity observed”.
With `CN(CC1(CO)CCCC1)C(=O)CCCCCCCN/C(=N\C#N)Nc1cc[n+](Cc2ccc(O[C@@H]3O[C@H](C(=O)O)[C@@H](O)[C@H](O)[C@H]3O)c(NC(=O)CCNC(=O)CCN3C(=O)C=CC3=O)c2)cc1` [Compound 26, 1-(4-(((2S,3R,4S,5S,6S)-6-carboxy-3,4,5-trihydroxytetrahydro-2H-pyran-2-yl)oxy)-3-(3-(3-(2,5-dioxo-2,5-dihydro-1H-pyrrol-1-yl)propanamido)-propanamido)benzyl)-4-((E)-2-cyano-3-(8-(((1-(hydroxymethyl)cyclopentyl)methyl)-(methyl)amino)-8-oxooctyl)guanidino)pyridin-1-ium 2,2,2-trifluoroacetate], in data set [1], the tumor growth delay result is recorded as “varying levels of tumor growth delay” and the “tolerability (weight loss, outward signs of toxicity)” value was “well-tolerated, with no weight loss or outward signs of toxicity observed”.
Regarding `NCCC(=O)Nc1cc(C[n+]2ccn3cc(C(=O)NCc4ccc(S(=O)(=O)c5cc(F)cc(F)c5)cc4)ccc32)ccc1O[C@@H]1O[C@H](C(=O)O)[C@@H](O)[C@H](O)[C@H]1O` [Compound 28, 1-(3-(3-ammoniopropanamido)-4-(((2S,3R,4S,5S,6S)-6-carboxy-3,4,5-trihydroxytetrahydro-2H-pyran-2-yl)oxy)benzyl)-6-((4-((3,5-difluorophenyl)-sulfonyl)benzyl)carbamoyl)imidazo[1,2-a]pyridin-1-ium 2,2,2-trifluoroacetate], the IC50 (in general, the concentration that gives 50% inhibition) in data set [2] was found to be 1 nM; in data set [3], 8.5 nM; in data set [4], 47 nM; in data set [5], 8 nM.
Take `CC(C)(C)OC(=O)NC[C@@H](C(=O)NCCC(=O)Nc1cc(C[n+]2ccn3cc(C(=O)NCc4ccc(S(=O)(=O)c5cc(F)cc(F)c5)cc4)ccc32)ccc1O[C@@H]1O[C@H](C(=O)O)[C@@H](O)[C@H](O)[C@H]1O)N1C(=O)C=CC1=O` [Compound 29, 1-(3-(3-((S)-3-((tert-butoxycarbonyl)amino)-2-(2,5-dioxo-2,5-dihydro-1H-pyrrol-1-yl)propanamido)propanamido)-4-(((2S,3R,4S,5S,6S)-6-carboxy-3,4,5-trihydroxytetrahydro-2H-pyran-2-yl)oxy)benzyl)-6-((4-((3,5-difluorophenyl)-sulfonyl)benzyl)carbamoyl)imidazo[1,2-a]pyridin-1-ium 2,2,2-trifluoroacetate]: the IC50 was 0.71 nM in data set [2], 0.78 nM in data set [3], 36 nM in data set [4] and 1.08 nM in data set [5].
For `NC[C@@H](C(=O)NCCC(=O)Nc1cc(C[n+]2cccc(/C=C/C(=O)NCCCCC3CCN(C(=O)c4ccccc4)CC3)c2)ccc1O[C@@H]1O[C@H](C(=O)O)[C@@H](O)[C@H](O)[C@H]1O)N1C(=O)C=CC1=O` [Compound 5, 1-(3-(3-((S)-3-amino-2-(2,5-dioxo-2,5-dihydro-1H-pyrrol-1-yl)propanamido)propanamido)-4-(((2S, 3R, 4S, 5S, 6S)-6-carboxy-3,4,5-trihydroxy-tetrahydro-2H-pyran-2-yl)oxy)benzyl)-3-((E)-3-((4-(1-benzoylpiperidin-4-yl)butyl)amino)-3-oxoprop-1-en-1-yl)pyridin-1-ium 2,2,2-trifluoroacetate], in data set [1], the tumor growth delay entry was “varying levels of tumor growth delay” and the “tolerability (weight loss, outward signs of toxicity)” value is “well-tolerated, with no weight loss or outward signs of toxicity observed”.
